Counter-ions that a name gives are not always drawn.
How the values were obtained:
[1] = system: phospho-cdc2 (Tyr15) in HT-29 cells; assay: Effect on phosphorylation of cdc2 at Tyr15, PathScan ELISA (Method 2); assay type: cell-based; settings: Homo sapiens, 8 h, eight hours incubation, read-out: HT29 pCDC2 method 2
Description: Method 2: Determining the Effect of Compounds on the phosphorylation of cdc2 at Tyr15
The colorectal cancer cell lines HT-29 and HCT-116 were purchased from the ATCC and routinely maintained in McCoy's Medium (Invitrogen) supplemented with 10% Foetal Calf Serum.
The cells were trypsinised from their growing vessel and counted, 100 μL of cell suspension containing 6000 cells was pipetted into black 96 well Co-star plates and incubated overnight to allow adherence to the surface at a temperature of 37° C. and an atmosphere of 5% CO2. Test compounds were formulated in DMSO and diluted in foetal calf serum supplemented medium. Incubating medium was removed by aspiration and diluted drug supplemented medium added to each well.
The plate was returned to the incubator for an additional eight hours at 37° C. and an atmosphere of 5% CO2. Post incubation, the drug supplemented medium was aspirated from each well and the cells were washed once in ice-cold phosphate buffered saline (PBS). 100 μL of cell lysis buffer (Cell Signalling Technologies #9803) containing 20 mM Tris, 150 mM NaCl, 1 mM EDTA, 1 mM EGTA, 1% Triton-X100, 2.5 mM sodium pyrophosphate, 1 mM glycerophosphate, 1 mM Na3VO4 and 1 μg/mL leupeptin was added to each well of the 96 well plate and incubated at 4° C. for 30 min. The samples on the plate were snap frozen at −80° C. until required. Immediately before the continuation of the assay, the sample plate was thawed and centrifuged at 4° C. for 10 min and the supernatant transferred to secondary tubes or 96 well plate.
Cell supernatant was mixed in a ratio of 1:1 with sample dilutent buffer and vortexed for one minute. 100 μL of diluted sample was pipetted into pre-coated plates containing a rabbit polyclonal antibody for phospho-cdc2 (Tyr15) (Cell Signalling Technologies PathScan kit #7176). The plate was sealed and incubated overnight at 4° C.
The plate seal was removed and the well contents aspirated, followed by 3×5 min washes with 200 μL of diluted wash buffer. Between each wash the plate was tapped firmly onto blotting paper to ensure the removal of all kit solution. 100 μL of kit detection antibody was added to each well and the plate re-sealed and incubated at 37° C. for 1 h. Post incubation the plate was washed and processed in a similar manner to that previously described.
100 μL of horseradish peroxidise-linked secondary antibody was added to each test well, the plate sealed and incubated for thirty minutes at 37° C. Post incubation, the plate was washed as previously stated, followed by the addition of 100 μL of 3,3′,5,5′ tetramethylbenzidine (TMB reagent). The plate was sealed and incubated at RT for 30 min.
100 μL of stop solution was added to each well and the underside of the plate wiped with a lint-free tissue, prior to spectrophotometric determination. Absorbance from each well was read at 450 nm within 30 min of the addition of the stop solution.
The percentage of phospho-cdc2 was calculated compared to DMSO control and plotted versus the concentration of inhibitor using GraphPad Prism. Data was fitted using non-linear regression analysis and IC50 values generated.

[2] = CLint estimates using human liver microsomes (Method 4); assay type: in vitro ADME; settings: pH 7.4, 1 μM compound, read-out: Mics - CLint (HLM CLint)
Method in brief: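 Depletion measured by LC/MS/MS in MRM mode over 2–50 min after starting reactions with 1 mM NADPH. Incubations used 0.5 mg/mL human liver microsomal protein, 1 μM compound, 0.1% DMSO, pH 7.4 phosphate buffer, 37 °C. ln peak area plotted against time; the gradient gave t½ and intrinsic clearance.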

[3] = molecular target: T1, Wee-1 kinase (Homo sapiens, UniProt P30291); assay: Measurement of Wee-1 kinase activity (ADP-Glo luminescent kit); assay type: biochemical
T1 construct: purchased Invitrogen PV3817
Method in brief: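 ADP-Glo luminescence reads ADP made over 1 h at RT, after an aliquot of 30 μM ATP and 2.0 μg/mL poly(Lys,Tyr 4:1) substrate. Before that, the kinase sat 30 min with inhibitor in Tris-HCl/MgCl2 buffer with BSA and DTT. IC50 came from regression of percent inhibition.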

[4] = molecular target: T2, human ether a go-go related gene (hERG) K′ channel (Homo sapiens, UniProt Q12809); assay: hERG activity, IonWorks patch clamp electrophysiology (Method 6); assay type: cell-based
T2 construct: Essen BioScience
Description: Method 6: Determination of hERG Activity
Compounds were tested for inhibition of the human ether a go-go related gene (hERG) K′ channel using IonWorks patch clamp electrophysiology at Essen BioScience. 8-Point concentration-response curves of the effect of compound on hERG current as a percentage of pre-compound signal were generated using 3-fold serial dilutions from 11 μM and results are reported as IC50 in μM.

[5] = system: phospho-cdc2 (Tyr15) in HT-29 cells; assay: Effect on Cdc2 phosphorylation at Tyr15, Cell-Based ELISA Base Kit (Method 3); settings: Homo sapiens, HT-29, 8 h, eight hours incubation, normalized to total cdc2, read-out: HT29 pCDC2 method 3
Method in brief: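 HT-29 cells were treated with compounds for 8 h at 37 °C, then fixed in 4% formaldehyde. Phospho-cdc2 (Tyr15) and total cdc2 were read by dual-fluorogenic cell-based ELISA at 600/450 nm. Phospho signal was normalized to total cdc2 and expressed as % of DMSO control, and EC50 came from non-linear regression.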

T2 sequence (Q12809 whole entry): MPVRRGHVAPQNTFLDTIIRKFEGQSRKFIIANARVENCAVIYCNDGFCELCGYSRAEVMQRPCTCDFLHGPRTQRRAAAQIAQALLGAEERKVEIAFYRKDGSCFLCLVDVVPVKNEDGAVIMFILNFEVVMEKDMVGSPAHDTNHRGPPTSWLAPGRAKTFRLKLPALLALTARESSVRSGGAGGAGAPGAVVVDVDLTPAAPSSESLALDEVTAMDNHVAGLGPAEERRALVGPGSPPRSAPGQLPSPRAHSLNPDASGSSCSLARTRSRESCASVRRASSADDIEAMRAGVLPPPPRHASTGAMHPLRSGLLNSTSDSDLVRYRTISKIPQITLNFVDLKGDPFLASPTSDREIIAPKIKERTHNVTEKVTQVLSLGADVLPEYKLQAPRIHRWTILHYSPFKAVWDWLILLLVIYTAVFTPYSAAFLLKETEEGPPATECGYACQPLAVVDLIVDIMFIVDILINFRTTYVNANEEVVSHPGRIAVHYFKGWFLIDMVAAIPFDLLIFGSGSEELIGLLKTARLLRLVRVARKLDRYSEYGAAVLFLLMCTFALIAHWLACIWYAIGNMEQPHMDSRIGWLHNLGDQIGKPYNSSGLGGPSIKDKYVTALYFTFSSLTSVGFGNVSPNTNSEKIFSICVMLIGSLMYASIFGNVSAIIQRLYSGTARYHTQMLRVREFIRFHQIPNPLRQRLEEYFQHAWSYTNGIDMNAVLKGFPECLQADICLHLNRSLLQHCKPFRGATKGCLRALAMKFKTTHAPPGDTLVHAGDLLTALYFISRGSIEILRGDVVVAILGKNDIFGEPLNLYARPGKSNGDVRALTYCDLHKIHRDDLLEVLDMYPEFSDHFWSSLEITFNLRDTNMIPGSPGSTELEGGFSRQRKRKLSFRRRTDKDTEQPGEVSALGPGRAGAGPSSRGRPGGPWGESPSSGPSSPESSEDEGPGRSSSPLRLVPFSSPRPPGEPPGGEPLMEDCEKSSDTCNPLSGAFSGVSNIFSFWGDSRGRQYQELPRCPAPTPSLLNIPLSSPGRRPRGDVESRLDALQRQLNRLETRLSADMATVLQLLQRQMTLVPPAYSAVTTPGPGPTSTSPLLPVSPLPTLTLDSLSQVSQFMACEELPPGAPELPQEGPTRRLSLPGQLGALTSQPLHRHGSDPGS
T1 sequence (P30291 whole entry): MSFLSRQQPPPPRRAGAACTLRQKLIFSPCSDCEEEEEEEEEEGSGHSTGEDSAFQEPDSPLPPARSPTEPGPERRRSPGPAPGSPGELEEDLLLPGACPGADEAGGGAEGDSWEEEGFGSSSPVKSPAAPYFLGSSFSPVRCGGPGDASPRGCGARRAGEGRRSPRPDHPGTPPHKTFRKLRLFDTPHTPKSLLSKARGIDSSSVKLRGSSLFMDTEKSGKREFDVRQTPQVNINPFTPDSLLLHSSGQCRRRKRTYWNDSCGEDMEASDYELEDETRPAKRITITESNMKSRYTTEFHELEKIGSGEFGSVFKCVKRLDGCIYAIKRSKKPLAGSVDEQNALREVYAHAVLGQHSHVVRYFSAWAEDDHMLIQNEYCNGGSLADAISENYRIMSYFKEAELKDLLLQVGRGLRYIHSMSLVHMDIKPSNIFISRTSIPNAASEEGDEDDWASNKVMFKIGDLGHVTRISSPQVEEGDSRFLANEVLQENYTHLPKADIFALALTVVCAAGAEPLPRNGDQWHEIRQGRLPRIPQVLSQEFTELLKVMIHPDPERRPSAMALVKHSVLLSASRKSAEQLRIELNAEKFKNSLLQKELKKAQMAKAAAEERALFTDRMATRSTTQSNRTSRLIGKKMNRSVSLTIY

IC50 [1] | microsomal CLint at 1 μM [2] | IC50 [3] | Compound | IC50 [4] | EC50 [5]
≥ 1000 nM | 15 to 50 µL/min/mg | ≥ 100 nM | CN1c2nc(Nc3ccc4c(c3)CNCC4)ncc2C(=O)N(c2c(Cl)cccc2Cl)C1c1ccccc1 (racemic) [Example 23, (rac)-3-(2,6-Dichlorophenyl)-1-methyl-2-phenyl-7-((1,2,3,4-tetrahydroisoquinolin-7-yl)amino)-2,3-dihydropyrimido[4,5-d]pyrimidin-4(1H)-one] |  | 
≥ 1000 nM |  | 10 to 100 nM | CN1CN(c2c(Cl)cccc2Cl)C(=O)c2cnc(Nc3ccc(S(C)(=N)=O)cc3)nc21 (racemic) [Example 30, (rac)-3-(2,6-Dichlorophenyl)-1-methyl-7-((4-(S-methylsulfonimidoyl)phenyl)amino)-2,3-dihydropyrimido[4,5-d]pyrimidin-4(1H)-one] |  | 
≥ 1000 nM | ≤ 15 µL/min/mg | 10 to 100 nM | CN1CN(c2c(Cl)cccc2Cl)C(=O)c2cnc(Nc3ccc(N4CCN(CC(=O)O)CC4)cc3)nc21 [Example 4, 2-(4-(4-((6-(2,6-Dichlorophenyl)-8-methyl-5-oxo-5,6,7,8-tetrahydropyrimido[4,5-d]pyrimidin-2-yl)amino)phenyl)piperazin-1-yl)acetic acid hydrochloride] |  | 
100 to 1000 nM | ≤ 15 µL/min/mg | 10 to 100 nM | CN1CN(c2c(Cl)cccc2Cl)C(=O)c2cnc(Nc3ccc(N4CCNCC4)c(F)c3)nc21 [Example 7, 3-(2,6-Dichlorophenyl)-7-((3-fluoro-4-(piperazin-1-yl)phenyl)amino)-1-methyl-2,3-dihydropyrimido[4,5-d]pyrimidin-4(1H)-one] |  | 
100 to 1000 nM | ≤ 15 µL/min/mg | 10 to 100 nM | O=C1c2cnc(Nc3ccc(N4CCNCC4)cc3)nc2NCN1c1c(Cl)cccc1Cl [Example 9, 3-(2,6-Dichlorophenyl)-7-((4-(piperazin-1-yl)phenyl)amino)-2,3-dihydropyrimido[4,5-d]pyrimidin-4(1H)-one] |  | 
100 to 1000 nM | ≤ 15 µL/min/mg | ≤ 10 nM | CN1CN(c2c(Cl)cccc2Cl)C(=O)c2cnc(Nc3ccc(N4CCNCC4)c(CO)c3)nc21 [Example 10, 3-(2,6-Dichlorophenyl)-7-((3-(hydroxymethyl)-4-(piperazin-1-yl)phenyl)amino)-1-methyl-2,3-dihydropyrimido[4,5-d]pyrimidin-4(1H)-one] | > 10000 nM | 
100 to 1000 nM | ≤ 15 µL/min/mg | 10 to 100 nM | CN1CN(c2c(Cl)cccc2Cl)C(=O)c2cnc(Nc3ccc(CN4CCNCC4)cc3)nc21 [Example 12, 3-(2,6-Dichlorophenyl)-1-methyl-7-((4-(piperazin-1-ylmethyl)phenyl)amino)-2,3-dihydropyrimido[4,5-d]pyrimidin-4(1H)-one] | > 10000 nM | 
100 to 1000 nM | 15 to 50 µL/min/mg | ≤ 10 nM | CN1CN(c2c(Cl)cccc2Cl)C(=O)c2cnc(Nc3ccc(N4CCN[C@H](CO)C4)cc3)nc21 [Example 20, (S)-3-(2,6-Dichlorophenyl)-7-((4-(3-(hydroxymethyl)piperazin-1-yl)phenyl)amino)-1-methyl-2,3-dihydropyrimido[4,5-d]pyrimidin-4(1H)-one] | > 10000 nM | 
≥ 1000 nM | ≤ 15 µL/min/mg | 10 to 100 nM | CC1N(C)c2nc(Nc3ccc(N4CCNCC4)cc3)ncc2C(=O)N1c1c(Cl)cccc1Cl (centres unmarked) [Example 26, 3-(2,6-Dichlorophenyl)-1,2-dimethyl-7-((4-(piperazin-1-yl)phenyl)amino)-2,3-dihydropyrimido[4,5-d]pyrimidin-4(1H)-one] |  | 
100 to 1000 nM | ≥ 50 µL/min/mg | 10 to 100 nM | CN1CN(c2c(Cl)cccc2Cl)C(=O)c2cnc(Nc3ccc(CN4CCOCC4)cc3)nc21 [Example 27, 3-(2,6-Dichlorophenyl)-1-methyl-7-((4-(morpholinomethyl)phenyl)amino)-2,3-dihydropyrimido[4,5-d]pyrimidin-4(1H)-one] |  | 
100 to 1000 nM | ≤ 15 µL/min/mg | 10 to 100 nM | O=C1c2cnc(Nc3ccc(N4CCNCC4)cc3)nc2N2CCCC2N1c1c(Cl)cccc1Cl (centres unmarked) [Example 28, 6-(2,6-Dichlorophenyl)-2-((4-(piperazin-1-yl)phenyl)amino)-6a,7,8,9-tetrahydropyrimido[5,4-e]pyrrolo[1,2-a]pyrimidin-5(6H)-one] |  | 
100 to 1000 nM | ≥ 50 µL/min/mg | 10 to 100 nM | CN1CCN(Cc2ccc(Nc3ncc4c(n3)N(C)CN(c3c(Cl)cccc3Cl)C4=O)cc2)CC1 [Example 29, 3-(2,6-Dichlorophenyl)-1-methyl-7-((4-((4-methylpiperazin-1-yl)methyl)phenyl)amino)-2,3-dihydropyrimido[4,5-d]pyrimidin-4(1H)-one] |  | 
 | ≤ 15 µL/min/mg | ≤ 10 nM | CN1CN(c2c(Cl)cccc2Cl)C(=O)c2cnc(Nc3ccc(C4CCNCC4)c(CO)c3)nc21 [Example 167, 3-(2,6-dichlorophenyl)-7-((3-(hydroxymethyl)-4-(piperidin-4-yl)phenyl)amino)-1-methyl-2,3-dihydropyrimido[4,5-d]pyrimidin-4(1H)-one] |  | ≥ 1000 nM
 | ≤ 15 µL/min/mg | ≤ 10 nM | CNCc1cccc(N2CN(c3c(Cl)cccc3Cl)C(=O)c3cnc(Nc4ccc(N5CCOCC5)cc4)nc32)c1 [Example 168, 3-(2,6-dichlorophenyl)-1-(3-((methylamino)methyl)phenyl)-7-((4-morpholinophenyl)amino)-2,3-dihydropyrimido[4,5-d]pyrimidin-4(1H)-one] |  | 100 to 1000 nM
 | ≤ 15 µL/min/mg | 10 to 100 nM | CCN1CN(c2c(Cl)cccc2Cl)C(=O)c2cnc(Nc3ccc(N4CCNCC4)cc3)nc21 [Example 169, 3-(2,6-dichlorophenyl)-1-ethyl-7-((4-(piperazin-1-yl)phenyl)amino)-2,3-dihydropyrimido[4,5-d]pyrimidin-4(1H)-one] |  | ≥ 1000 nM
 | 15 to 50 µL/min/mg | ≤ 10 nM | CCN1CN(c2c(Cl)cccc2Cl)C(=O)c2cnc(Nc3ccc(N4C[C@@H](C)N[C@@H](C)C4)c(CO)c3)nc21 [Example 170, 3-(2,6-dichlorophenyl)-7-((4-((3S,5R)-3,5-dimethylpiperazin-1-yl)-3-(hydroxymethyl)phenyl)amino)-1-ethyl-2,3-dihydropyrimido[4,5-d]pyrimidin-4(1H)-one] |  | 100 to 1000 nM
